In patent US4001248A, “N-cycloalkylmethyl decahydroisoquinolines” (Eli Lilly and Company, priority 1974, dated 1977):
Structures can show the parent of a compound that is named as a salt. Where two headings read alike, the source gives them in different places.

Key:
rat tail jerk = rat tail jerk assay (increase in reaction time over control); assay type: in vivo
Text: The compounds of this invention are also active in the rat tail jerk assay, another standard pharmacologic test for analgesic activity of the opiate-type. Such activity is manifested as an increase in the reaction time of the animal in removing (jerking) its tail from a nearby heat stimulus (a resistance wire) after drug administration compared to control time (no drug administered). Table 2 which follows gives the increased reaction times over control times produced by the compounds of this invention when administered subcutaneously. In Tables 2 and 3, column 1 gives the name of the compound; column 2, the dose; column 3, time of observation after administration of the drug; column 4, the increase in reaction time above control in seconds; and column 5, the level of significance of the results ("p" value). […] All drugs were administered as aqueous solutions. More than one value for a given dose level indicates multiple determinations. The results are not averaged.

[1] = test system: writhing in mice induced by the intraperitoneal injection of acetic acid; assay: mouse-writhing test (inhibition of writhing induced by intraperitoneal acetic acid); assay type: in vivo; details: for ED50: Mus musculus, read-out: Median inhibiting dose (I.D.50)
Text: In the Table, column 1 gives the name of the compund; column 2, the dosage in mg./kg. of mouse weight; column 3, the route of administration of the drug ("S.C." is subcutaneous and "or" is oral); and column 4, the percent inhibition found at the particular dose level. […] Median inhibiting doses (I.D.50) are also included in the Table.

morphine = assay: modified rat tail jerk assay, antagonism of morphine; assay type: in vivo, rats
Experimental: The ability of the compounds of this invention to antagonize the action of morphine, an opiate, is shown by the following modification of the aforementioned rat tail jerk assay: The standard assay procedure is used with the exception that a 7 amps. current is used instead of a 6 amps. current in the hot wire to decrease the measurable agonist effects of the antagonist. The drugs under test are then administered to groups of rats at different dose levels at different times prior to test, with a 5 mg./kg. dose of morphine invariably being administered 10 minutes prior to test. Positive evidence of antagonism is a decreased reaction time over that to be expected from the morphine. […] Among the compounds of this invention, those in which R in Structure I is cyclopropylmethyl are the preferred antagonists, showing activity in the above test procedure. […] In a series of determinations, it was ascertained that the minimum subcutaneous dose necessary to reduce the analgesic effects of a 5 mg./kg. subcutaneous dose of morphine was in the range 2.5-5.0 mg./kg. and the minimum oral dose, 5-10 mg./kg.

[2] = prior art; cited from earlier work
[3] = 20 mg./kg. S.C., reading at 0.5 hours
[4] = 20 mg./kg. oral, reading at 0.5 hours
[5] = 100 mg./kg. S.C., reading at 0.5 hours
[6] = 100 mg./kg. oral, reading at 0.5 hours

SMILES: Oc1cccc([C@]23CCCC[C@@H]2CN(CC2CCC2)CC3)c1 (relative stereo) [Trans-dl-1-cyclobutylmethyl-3a-(m-hydroxyphenyl)-1,2,3,3a,4,5,6,7,7a,8-decahydroisoquinoline maleate]
- Increase in Reaction Time Over Control (rat tail jerk; oral, 10 mg./kg., 10 min): .43 s
- Increase in Reaction Time Over Control (rat tail jerk; oral, 10 mg./kg., 30 min): .63 s
- Increase in Reaction Time Over Control (rat tail jerk; oral, 10 mg./kg., 60 min): .21 s
- Increase in Reaction Time Over Control (rat tail jerk; oral, 25 mg./kg., 30 min): 1.71 s
- Increase in Reaction Time Over Control (rat tail jerk; oral, 25 mg./kg., 60 min): 1.04 s
- Increase in Reaction Time Over Control (rat tail jerk; oral, 50 mg./kg., 30 min): 12.42 s
- Increase in Reaction Time Over Control (rat tail jerk; subcutaneous, 0.25 mg./kg., 30 min): .71 s
- Increase in Reaction Time Over Control (rat tail jerk; subcutaneous, 0.5 mg./kg., 30 min): .21 s
- Increase in Reaction Time Over Control (rat tail jerk; subcutaneous, 1 mg./kg., 10 min): .46 s
- Increase in Reaction Time Over Control (rat tail jerk; subcutaneous, 1 mg./kg., 30 min): 1.63 s
- Increase in Reaction Time Over Control (rat tail jerk; subcutaneous, 1 mg./kg., 60 min): .17 s
- Increase in Reaction Time Over Control (rat tail jerk; subcutaneous, 2 mg./kg., 10 min): 2.17 s
- Increase in Reaction Time Over Control (rat tail jerk; subcutaneous, 2 mg./kg., 30 min): 2.50 s
- Increase in Reaction Time Over Control (rat tail jerk; subcutaneous, 2 mg./kg., 60 min): .96 s
- Increase in Reaction Time Over Control (rat tail jerk; subcutaneous, 10 mg./kg., 10 min): 17.88 s
- Increase in Reaction Time Over Control (rat tail jerk; subcutaneous, 10 mg./kg., 30 min): 23.04 s
- Increase in Reaction Time Over Control (rat tail jerk; subcutaneous, 10 mg./kg., 60 min): 22.13 s
- % Inhibition ([1]; 1 mg./kg. S.C., reading at 0.5 hours): 46%
- % Inhibition ([1]; 2 mg./kg. S.C., reading at 0.5 hours): 96%
- % Inhibition [1, 3]: 100%
- % Inhibition [1, 4]: 36%
- % Inhibition [1, 5]: 100%
- % Inhibition [1, 6]: 100%

SMILES: COc1cccc([C@]23CCCC[C@@H]2CN(CC2CC2)CC3)c1 (relative stereo) [Trans-dl-1-cyclopropylmethyl-3a-(m-methoxyphenyl)-1,2,3,3a,4,5,6,7,7a,8-decahydroisoquinoline maleate]
- Increase in Reaction Time Over Control (rat tail jerk; oral, 20 mg./kg., 30 min): 1.10 s
- Increase in Reaction Time Over Control (rat tail jerk; oral, 20 mg./kg., 120 min): .20 s
- Increase in Reaction Time Over Control (rat tail jerk; oral, 80 mg./kg., 30 min): 8.05 s
- Increase in Reaction Time Over Control (rat tail jerk; oral, 80 mg./kg., 120 min): 1.19 s
- Increase in Reaction Time Over Control (rat tail jerk; subcutaneous, 80 mg./kg., 30 min): 1.75 s
- Increase in Reaction Time Over Control (rat tail jerk; subcutaneous, 80 mg./kg., 120 min): 1.05 s
- % Inhibition ([1]; 10 mg./kg. S.C., reading at 0.5 hours): 20%
- % Inhibition [1, 3]: 64%
- % Inhibition ([1]; 20 mg./kg. oral, reading at 0.25 hours): 5%
- % Inhibition [1, 4]: 13%
- % Inhibition ([1]; 50 mg./kg. oral, reading at 0.25 hours): 79%
- % Inhibition ([1]; 50 mg./kg. oral, reading at 0.5 hours): 69%
- % Inhibition [1, 5]: 100%
- % Inhibition ([1]; 100 mg./kg. oral, reading at 0.25 hours): 89%
- % Inhibition [1, 6]: 87%
- ED50 ([1]; sc, S.C.): 10 to 20 mg/kg
- ED50 ([1]; oral): 20 to 50 mg/kg

SMILES: COc1cccc([C@]23CCCC[C@@H]2CN(CC2CC2)CC3)c1 (relative stereo) [Trans-dl-1-cyclopropylmethyl-3a-(m-methoxyphenyl)-1,2,3,3a,4.5,6,7,7a,8-decahydroisoquinoline]
- antagonism of morphine (morphine; dose not stated): found to antagonize morphine

SMILES: Oc1cccc([C@]23CCCC[C@@H]2CN(CC2CC2)CC3)c1 (stereo in doubt) [Trans-dl-1-cyclopropylmethyl-3a-(m-hydroxyphenyl)-1,2,3,3a,4,5,6,7,7a,8-decahydroisoquinoline]
- antagonism of morphine analgesia (morphine; 50 mg./kg. oral, 30 minutes prior to test, morphine 5 mg./kg. 10 minutes prior to test): reduces the analgesic response to 5 mg./kg. of morphine
- % Inhibition ([1]; 2 mg./kg. S.C., reading at 0.25 hours): 43%
- % Inhibition ([1]; 5 mg./kg. S.C., reading at 0.25 hours): 70%
- ED50 ([1]; sc, S.C., readings of this compound at 0.25 hours): 2 to 5 mg/kg

SMILES: C=CCN1CC[C@]23c4c5ccc(OC)c4O[C@H]2[C@@H](O)C=C[C@H]3[C@H]1C5 [N-allylnorcodeine]
- opiate antagonist / agonist properties [2]: opiate antagonist

SMILES: COc1ccc2c3c1O[C@H]1[C@@H](O)C=C[C@H]4[C@@H](C2)N(C)CC[C@@]341 [codeine]
- analgesic activity [2]: relatively mild analgesic agonist
- dependance (addiction) liability [2]: slight dependance (addiction) liability

SMILES: CC(=O)Oc1ccc2c3c1O[C@H]1[C@@H](OC(C)=O)C=C[C@H]4[C@@H](C2)N(C)CC[C@@]341 [heroin]
- analgesic activity [2]: powerful agonist
- dependance (addiction) liability [2]: extremely high addiction potential

SMILES: C=CCN1CC[C@]23c4c5ccc(O)c4O[C@H]2[C@@H](O)C=C[C@H]3[C@H]1C5 [nalorphine, N-allylnormorphine]
- opiate antagonist / agonist properties [2]: highly specific ability to reverse the depressant effects of morphine

SMILES: CC(C)=CCN1CCC2(C)c3cc(O)ccc3CC1C2C (stereo not shown) [pentazocine]
- dependance (addiction) liability [2]: retain a certain degree of opiate dependance liability
- opiate antagonist / agonist properties [2]: both antagonists and agonists

SMILES: CC1C2Cc3ccc(O)cc3C1(C)CCN2CCc1ccccc1 (stereo not shown) [phenazocine]
- dependance (addiction) liability [2]: retain a certain degree of opiate dependance liability
- opiate antagonist / agonist properties [2]: both antagonists and agonists
